Experimental data published in patent US20100016394A1, “BIOCIDAL COMPOSITIONS” (priority 2008, published 2010).
Marks after values point to notes of the source that are not given here.

Assays:
mold = assay: Modified ASTM-G21 mold resistant test on fungicide-infused Kraft paper; assay type: cell-based; conditions: single active infused in Kraft paper; pass = mold resistant rating of 0 or 1; Trichoderma virens omitted from spore inocula
Procedure: In this example unbleached Kraft paper (brown wrapping paper (density 0.0091 g/cm2) is infused with DIMTS, carbendazim (BCM) and chlorothalonil (CTL) over a broad concentration range. In addition, paired combinations as well as all 3 actives combined are also infused into Kraft paper samples. Infusion of fungicide into paper is conducted by first dissolving the technical actives in a volatile solvent followed by addition of 1 mL of a working stock solution onto the surface of the paper to give the appropriate concentration of active(s) in mg/kg paper. The solvent completely saturates the paper. In order to prevent solvent from leaching through paper onto container, the paper is supported with a Viton O-ring. The solvent saturated paper samples are allowed to dry in a chemical fume hood precipitating the fungicides within the paper. Chemical analyses of fungicide actives in the paper samples confirms that this infusion technique produces >90% incorporation efficiency based on target concentrations. Standard mold resistant tests are performed on duplicate sub samples from each paper infusion sample. A modified ASTM-G21 is the standard mold resistant test used for performance evaluation. Synergy indices are calculated for all combinations of actives using a mold resistant rating of 0 or 1 as the passing criteria for performance. Synergy calculations are made according to the following standard equation:
SI=(Ca/CA)+(Cb/CB) 2 combination tests
SI=(Ca/CA)+(Cb/CB)+(Cc/CC) 3 combination tests
Ca is the lowest concentration of component A in combination with other active(s) required to pass test criteria;
CA is the lowest concentration of component A alone required to pass test criteria;
Cb is the lowest concentration of component B in combination with other active(s) required to pass test criteria;
CB is the lowest concentration of component B alone required to pass test criteria;
Cc is the lowest concentration of component C in combination with other active(s) required to pass test criteria; and
CC is the lowest concentration of component C alone required to pass test criteria. […]

[1] = cited from earlier work

SMILES	PPM (active), lowest concentration of component alone required to pass test criteria (mold)	Water solubility [1]
COC(=O)Nc1nc2ccccc2[nH]1 [BCM, methyl 2-benzimidazolecarbamate]	1200 PPM	–
N#Cc1c(Cl)c(Cl)c(Cl)c(C#N)c1Cl [CTL, 1,3-dicyano-tetrachlorobenzene]	> 1000* PPM	–
Cc1ccc(S(=O)(=O)C(I)I)cc1 [DIMTS, diiodomethyltolylsulfone]	4000 PPM	water insoluble
